Results: PMC6171417, “Carbonic anhydrase inhibition with a series of novel benzenesulfonamide-triazole conjugates” (Journal of Enzyme Inhibition and Medicinal Chemistry, 2018)

How the values were obtained:
Assay in all cases: cells
Set-up in all cases: species or system NCI human tumour cell line panel
[1] = test system: A498; details: Homo sapiens, A498; growth inhibition (GI%), single dose
[2] = test system: BT-549; details: Homo sapiens, BT-549; growth inhibition (GI%), single dose
[3] = test system: CCRF-CEM; details: Homo sapiens, CCRF-CEM; growth inhibition (GI%), single dose
[4] = test system: EKVX; details: Homo sapiens, EKVX; growth inhibition (GI%), single dose
[5] = test system: HCT-116; details: Homo sapiens, HCT-116; growth inhibition (GI%), single dose
[6] = test system: HCT-15; details: Homo sapiens, HCT-15; growth inhibition (GI%), single dose
[7] = test system: HOP-62; details: Homo sapiens, HOP-62; growth inhibition (GI%), single dose
[8] = test system: HOP-92; details: Homo sapiens, HOP-92; growth inhibition (GI%), single dose
[9] = test system: HS 578T; details: Homo sapiens, Hs-578T; growth inhibition (GI%), single dose
[10] = test system: MCF7; details: Homo sapiens, MCF7; growth inhibition (GI%), single dose
[11] = test system: MDA-MB-468; details: Homo sapiens, MDA-MB-468; growth inhibition (GI%), single dose
[12] = test system: MOLT-4; details: Homo sapiens, MOLT-4; growth inhibition (GI%), single dose
[13] = test system: NCI-H226; details: Homo sapiens, NCI-H226; growth inhibition (GI%), single dose
[14] = test system: NCI-H522; details: Homo sapiens, NCI-H522; growth inhibition (GI%), single dose
[15] = test system: OVCAR-5; details: Homo sapiens, OVCAR-5; growth inhibition (GI%), single dose
[16] = test system: PC-3; details: Homo sapiens, PC-3; growth inhibition (GI%), single dose
[17] = test system: SF-268; details: Homo sapiens, SF-268; growth inhibition (GI%), single dose
[18] = test system: SF-295; details: Homo sapiens, SF-295; growth inhibition (GI%), single dose
[19] = test system: SF-539; details: Homo sapiens, SF-539; growth inhibition (GI%), single dose
[20] = test system: SK-OV-3; details: Homo sapiens, SK-OV-3; growth inhibition (GI%), single dose
[21] = test system: SN12C; details: Homo sapiens, SN12C; growth inhibition (GI%), single dose
[22] = test system: SNB-19; details: Homo sapiens, SNB-19; growth inhibition (GI%), single dose
[23] = test system: SNB-75; details: Homo sapiens, SNB-75; growth inhibition (GI%), single dose
[24] = test system: T-47D; details: Homo sapiens, T47D; growth inhibition (GI%), single dose
[25] = test system: TK-10; details: Homo sapiens, TK-10; growth inhibition (GI%), single dose
[26] = test system: U251; details: Homo sapiens, U-251; growth inhibition (GI%), single dose
[27] = test system: UACC-257; details: Homo sapiens, UACC-257; growth inhibition (GI%), single dose
[28] = test system: UACC-62; details: Homo sapiens, UACC-62; growth inhibition (GI%), single dose
[29] = test system: UO-31; details: Homo sapiens, UO-31; growth inhibition (GI%), single dose

SMILES: N#Cc1nnn(-c2ccc(S(N)(=O)=O)cc2)c1NC(=O)CCl [compound 5, 5]
- inhibition at 10 µM [1]: 8.6%
- inhibition at 10 µM [2]: 3.1%
- inhibition at 10 µM [3]: 11.3%
- inhibition at 10 µM [4]: 8.6%
- inhibition at 10 µM [5]: 5.4%
- inhibition at 10 µM [6]: 4.1%
- inhibition at 10 µM [7]: 7.9%
- inhibition at 10 µM [8]: 3.9%
- inhibition at 10 µM [9]: 99.8%
- inhibition at 10 µM [10]: 9.1%
- inhibition at 10 µM [11]: 1.3%
- inhibition at 10 µM [12]: 7.7%
- inhibition at 10 µM [13]: 4.6%
- inhibition at 10 µM [14]: 5.1%
- inhibition at 10 µM [15]: 3.4%
- inhibition at 10 µM [16]: 10.3%
- inhibition at 10 µM [17]: 2.5%
- inhibition at 10 µM [18]: 1.8%
- inhibition at 10 µM [19]: 1.3%
- inhibition at 10 µM [20]: 3.5%
- inhibition at 10 µM [21]: 11.8%
- inhibition at 10 µM [22]: 3.8%
- inhibition at 10 µM [23]: 14.5%
- inhibition at 10 µM [24]: 4.8%
- inhibition at 10 µM [25]: 3.6%
- inhibition at 10 µM [26]: 7.7%
- inhibition at 10 µM [27]: 11.1%
- inhibition at 10 µM [28]: 3.4%
- inhibition at 10 µM [29]: 13.5%
